This experiment addresses T1, PE-labeled human PD-L1-Ig binding to Jurkat cell line over-expressing human PD-1 (Jurkat-PD-1) (Homo sapiens, UniProt Q15116).
T1 construct: expressed in transfected cells; host or cells: Jurkat
The experiment in a line: Jurkat-PD-1 Cell Binding High-Content Screening Assay (CBA): Method 1. The conditions noted are these: Jurkat-hPD-1 cells, PE-labeled PD-L1-Ig 20 nM final; read-out: Jurkat HPDL1 PD1 IC50 (uM) (Method 1).

Numbered stars: 1 amine (or outer) side, 2 acyl side, 3 side chain; on linkers, the order of the positions; unused ones are H or OH. Bridge positions count the residues as written; N and C are the ends. Square brackets hold non-standard residues; d marks the D form. Peptide text beside a SMILES is read from it. * marks the point of attachment. ξ: configuration not given here. X47 = O=C([C@H](Cc1ccc(-c2cccc(OC(F)(F)F)c2)cc1)N[*:1])[*:2]; Ala(morpholin-4-yl) = N[C@@H](CN1CCOCC1)C(=O)O; Phe(4-COOH) = N[C@@H](Cc1ccc(C(=O)O)cc1)C(=O)O; Asp(3,3-Me2) = CC(C)(C(=O)O)[C@H](N)C(=O)O; Bip = N[C@@H](Cc1ccc(-c2ccccc2)cc1)C(=O)O; Tyr(3-I) = N[C@@H](Cc1ccc(O)c(I)c1)C(=O)O; Phe(3-Br) = N[C@@H](Cc1cccc(Br)c1)C(=O)O; Phe(3-Me) = Cc1cccc(C[C@H](N)C(=O)O)c1; X41 = O=C([C@H](CC1CCCNC1)N[*:1])[*:2]; dPhe(3-F) = N[C@H](Cc1cccc(F)c1)C(=O)O; Val(3-OH) = CC(C)(O)[C@H](N)C(=O)O; d(hPhe) = N[C@H](CCc1ccccc1)C(=O)O; NMeF = CN[C@@H](Cc1ccccc1)C(=O)O; 4Pal = N[C@@H](Cc1ccncc1)C(=O)O; Cha = N[C@@H](CC1CCCCC1)C(=O)O; Cit = NC(=O)NCCC[C@H](N)C(=O)O; Ile(3ξ) = CCC(C)[C@H](N)C(=O)O; Thr(3ξ) = CC(O)[C@H](N)C(=O)O; Carboxymethyl = O=C(O)C*; NMeA = CN[C@@H](C)C(=O)O; Orn = NCCC[C@H](N)C(=O)O; Pra = C#CC[C@H](N)C(=O)O; Dab = NCC[C@H](N)C(=O)O

The term IC50 denotes the point on the concentration scale where inhibition reaches its midpoint.

T1 sequence (Q15116 25-288): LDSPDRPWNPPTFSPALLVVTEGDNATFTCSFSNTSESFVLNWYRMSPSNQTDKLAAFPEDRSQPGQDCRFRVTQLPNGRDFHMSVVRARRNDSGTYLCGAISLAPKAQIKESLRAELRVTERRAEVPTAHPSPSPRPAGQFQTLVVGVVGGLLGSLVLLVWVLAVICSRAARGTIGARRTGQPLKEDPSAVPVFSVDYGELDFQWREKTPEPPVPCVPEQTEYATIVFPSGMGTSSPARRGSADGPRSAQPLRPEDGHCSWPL

As to `CC(C)C[C@@H]1NC(=O)[C@H](CCN)NC(=O)[C@@H](CC(C)C)NC(=O)[C@H](C)N(C)C(=O)[C@H](CCCNC(=N)N)NC(=O)[C@H](Cc2ccc(-c3cccc(OC(F)(F)F)c3)cc2)NC(=O)[C@H](C(C)C)NC(=O)[C@H](Cc2c[nH]c3ccccc23)NC(=O)[C@H](CC(=O)O)NC(=O)[C@H](Cc2ccc(O)cc2)NC(=O)[C@H](CC(N)=O)NC(=O)CSC[C@@H](C(=O)N[C@@H](C)C(N)=O)NC(=O)[C@H]([C@@H](C)O)NC(=O)[C@H](C(C)C)NC1=O` [Compound 1228] ({CH2CO}-NYDWV[X47]R[NMeA][dL][Dab]LVTCA-NH2; thioether N-14), the half-inhibitory concentration (IC50) came to 0.9 µM.
With `CC(C)C[C@@H]1NC(=O)[C@H](CCCNC(=N)N)NC(=O)[C@@H](Cc2cccc(F)c2)NC(=O)[C@H](C)N(C)C(=O)[C@H](CCCNC(=N)N)NC(=O)[C@H](Cc2ccc(-c3ccccc3)cc2)NC(=O)[C@H](C(C)C)NC(=O)[C@H](Cc2c[nH]c3ccccc23)NC(=O)[C@H](CC(=O)O)NC(=O)[C@H](Cc2ccc(O)cc2)NC(=O)[C@H](Cc2ccccc2)NC(=O)CSC[C@@H](C(=O)N[C@@H](C)C(N)=O)NC(=O)[C@H]([C@@H](C)O)NC(=O)[C@H](C(C)C)NC1=O` [Compound 1071] ({CH2CO}-FYDWV[Bip]R[NMeA][dPhe(3-F)]RLVTCA-NH2; thioether N-14), the 50% inhibitory concentration (IC50) was found to be 0.13 µM.
Take `Cc1cccc(C[C@@H]2NC(=O)[C@H](CC(=O)O)NC(=O)[C@H](Cc3ccc(OCC(=O)O)cc3)NC(=O)[C@H](CN3CCOCC3)NC(=O)CSC[C@@H](C(=O)N[C@@H](CCN)C(N)=O)NC(=O)[C@H](CCCN)NC(=O)[C@H](C(C)C)NC(=O)[C@H](Cc3cccc(Br)c3)NC(=O)[C@H](CCN)NC(=O)[C@@H](CC(C)C)NC(=O)[C@H](C)N(C)C(=O)[C@H](CCC(N)=O)NC(=O)[C@H](Cc3ccc(-c4ccccc4)cc3)NC(=O)[C@H](Cc3ccc(C(=O)O)cc3)NC2=O)c1` [Example 2291] ({CH2CO}-[Ala(morpholin-4-yl)]Y(Carboxymethyl)D[Phe(3-Me)][Phe(4-COOH)][Bip]Q[NMeA][dL][Dab][Phe(3-Br)]V[Orn]C[Dab]-NH2; thioether N-14): the IC50 worked out at 0.21 µM.
Take `CC(=O)NCC[C@H](NC(=O)[C@@H]1CSCC(=O)N[C@@H](Cc2ccncc2)C(=O)N[C@@H](Cc2ccc(OCC(=O)O)cc2)C(=O)N[C@@H](CC(=O)O)C(=O)N[C@@H](Cc2cccc(C)c2)C(=O)N[C@@H](Cc2ccc(C(=O)O)cc2)C(=O)N[C@@H](Cc2ccc(-c3ccccc3)cc2)C(=O)N[C@@H](Cc2ccc(OCC(=O)O)cc2)C(=O)N(C)[C@@H](C)C(=O)N[C@H](CC(C)C)C(=O)N[C@@H](CCN)C(=O)N[C@@H](CC2CCCCC2)C(=O)N[C@@H](C(C)(C)O)C(=O)N[C@@H](Cc2cnc[nH]2)C(=O)N1)C(N)=O` [Compound 2162] ({CH2CO}-[4Pal]Y(Carboxymethyl)D[Phe(3-Me)][Phe(4-COOH)][Bip]Y(Carboxymethyl)[NMeA][dL][Dab][Cha][Val(3-OH)]HC[Dab](Ac)-NH2; thioether N-14): the IC50 stood at 0.02 µM.
Regarding `CC(C)C[C@H]1NC(=O)[C@H](C)N(C)C(=O)[C@H](CCCN)NC(=O)[C@H](Cc2ccc(-c3ccccc3)cc2)NC(=O)[C@H](C(C)C)NC(=O)[C@H](Cc2c[nH]c3ccccc23)NC(=O)[C@H](CC(=O)O)NC(=O)[C@H](Cc2ccc(O)cc2)NC(=O)[C@H](CC(N)=O)NC(=O)CSC[C@@H](C(=O)N[C@@H](C)C(N)=O)NC(=O)[C@H]([C@@H](C)O)NC(=O)[C@H](C(C)C)NC(=O)[C@H](CC2CCCCC2)NC(=O)[C@H](CCN)NC1=O` [Compound 1278] ({CH2CO}-NYDWV[Bip][Orn][NMeA][dL][Dab][Cha]VTCA-NH2; thioether N-14), the 50% inhibitory concentration (IC50) came out at 0.01 µM.
Then `CC(C)C[C@@H]1NC(=O)[C@H](CCCNC(=N)N)NC(=O)[C@@H](CC(C)C)NC(=O)[C@H](C)N(C)C(=O)[C@H](CCCNC(=N)N)NC(=O)[C@H](Cc2ccc(-c3ccccc3)cc2)NC(=O)[C@H](C(C)C)NC(=O)[C@H](Cc2c[nH]c3ccccc23)NC(=O)[C@H](CC(=O)O)NC(=O)[C@H](Cc2ccc(O)c(I)c2)NC(=O)[C@H](Cc2ccccc2)NC(=O)CSC[C@@H](C(=O)N[C@@H](C)C(N)=O)NC(=O)[C@H]([C@@H](C)O)NC(=O)[C@H](C(C)C)NC1=O` [Compound 1109] ({CH2CO}-F[Tyr(3-I)]DWV[Bip]R[NMeA][dL]RLVTCA-NH2; thioether N-14), with 0.12 µM; and `CCC(C)[C@@H]1NC(=O)[C@H](Cc2ccc(-c3ccccc3)cc2)NC(=O)[C@H](C(C)C)NC(=O)[C@H](Cc2c[nH]c3ccccc23)NC(=O)[C@H](CC(=O)O)NC(=O)[C@H](Cc2ccc(O)cc2)NC(=O)[C@H](CC2CCCNC2)NC(=O)CSC[C@@H](C(=O)N[C@@H](C)C(N)=O)NC(=O)[C@H](C(C)O)NC(=O)[C@H](C(C)C)NC(=O)[C@H](CC2CCCCC2)NC(=O)[C@H](CCN)NC(=O)[C@@H](CC(C)C)NC(=O)[C@H](C)N(C)C1=O` (stereo partly drawn) [Compound 2051] ({CH2CO}-[X41]YDWV[Bip][Ile(3ξ)][NMeA][dL][Dab][Cha]V[Thr(3ξ)]CA-NH2; thioether N-14), with 0.01 µM; and `CCNC(=O)[C@H](CCN)NC(=O)[C@@H]1CSCC(=O)N[C@@H](Cc2ccncc2)C(=O)N[C@@H](Cc2ccc(C(=O)O)cc2)C(=O)N[C@@H](CC(=O)O)C(=O)N[C@@H](Cc2c[nH]c3ccccc23)C(=O)N[C@@H](CC(C)C)C(=O)N[C@@H](Cc2ccc(-c3ccccc3)cc2)C(=O)N[C@@H]([C@@H](C)CC)C(=O)N(C)[C@@H](C)C(=O)N[C@H](CC(C)C)C(=O)N[C@@H](CCN)C(=O)N[C@@H](CC2CCCCC2)C(=O)N[C@@H](C(C)(C)O)C(=O)N[C@@H](CO)C(=O)N1` [Compound 1849] ({CH2CO}-[4Pal][Phe(4-COOH)]DWL[Bip]I[NMeA][dL][Dab][Cha][Val(3-OH)]SC[Dab]-NHEt; thioether N-14), with 0.01 µM.
On to `Cc1cccc(C[C@@H]2NC(=O)[C@H](CC(=O)O)NC(=O)[C@H](Cc3ccc(C(=O)O)cc3)NC(=O)[C@H](Cc3ccncc3)NC(=O)CSC[C@@H](C(N)=O)NC(=O)[C@H]([C@@H](C)O)NC(=O)[C@H](C(C)C)NC(=O)[C@H](CC(C)C)NC(=O)[C@H](CCN)NC(=O)[C@@H](CC(C)C)NC(=O)[C@H](C)N(C)C(=O)[C@H](CCCNC(N)=O)NC(=O)[C@H](Cc3ccc(-c4ccccc4)cc3)NC(=O)[C@H](C(C)C)NC2=O)c1` [Compound 1898] ({CH2CO}-[4Pal][Phe(4-COOH)]D[Phe(3-Me)]V[Bip][Cit][NMeA][dL][Dab]LVTC-NH2; thioether N-14), for which the IC50 is 0.07 µM.
As for `Cc1cccc(C[C@@H]2NC(=O)[C@H](CC(=O)O)NC(=O)[C@H](Cc3ccc(OCC(=O)O)cc3)NC(=O)[C@H](CCN)NC(=O)CSC[C@@H](C(=O)N[C@@H](CCN)C(N)=O)NC(=O)[C@H](CO)NC(=O)[C@H](C(C)(C)C(=O)O)NC(=O)[C@H](CC3CCCCC3)NC(=O)[C@H](CCN)NC(=O)[C@@H](CC(C)C)NC(=O)[C@H](C)N(C)C(=O)[C@H](Cc3ccc(OCC(=O)O)cc3)NC(=O)[C@H](Cc3ccc(-c4ccccc4)cc3)NC(=O)[C@H](Cc3ccc(OCC(=O)O)cc3)NC2=O)c1` [Compound 1848] ({CH2CO}-[Dab]Y(Carboxymethyl)D[Phe(3-Me)]Y(Carboxymethyl)[Bip]Y(Carboxymethyl)[NMeA][dL][Dab][Cha][Asp(3,3-Me2)]SC[Dab]-NH2; thioether N-14), the IC50 worked out at 0.06 µM.
With `Cc1cccc(C[C@@H]2NC(=O)[C@H](CC(=O)O)NC(=O)[C@H](Cc3ccc(OCC(=O)O)cc3)NC(=O)[C@H](Cc3ccccc3)N(C)C(=O)CSC[C@@H](C(=O)N[C@@H](CCN)C(N)=O)NC(=O)[C@H](CO)NC(=O)[C@H](C(C)C)NC(=O)[C@H](CC3CCCCC3)NC(=O)[C@H](CCN)NC(=O)[C@@H](CC(C)C)NC(=O)[C@H](C)N(C)C(=O)[C@H](Cc3ccc(OCC(=O)O)cc3)NC(=O)[C@H](Cc3ccc(-c4ccccc4)cc3)NC(=O)[C@H](Cc3ccc(OCC(=O)O)cc3)NC2=O)c1` [Compound 1861] ({CH2CO}-[NMeF]Y(Carboxymethyl)D[Phe(3-Me)]Y(Carboxymethyl)[Bip]Y(Carboxymethyl)[NMeA][dL][Dab][Cha]VSC[Dab]-NH2; thioether N-14), the IC50 was 0.1 µM.
In the case of `C#CC[C@H](NC(=O)[C@@H](C)NC(=O)[C@@H]1CSCC(=O)N[C@@H](Cc2c[nH]cn2)C(=O)N[C@@H](Cc2ccc(OCC(=O)O)cc2)C(=O)N[C@@H](CC(=O)O)C(=O)N[C@@H](Cc2c[nH]c3ccccc23)C(=O)N[C@@H](C(C)C)C(=O)N[C@@H](Cc2ccc(-c3ccccc3)cc2)C(=O)N[C@@H](C(C)C)C(=O)N(C)[C@@H](C)C(=O)N[C@H](CC(C)C)C(=O)N[C@@H](CCN)C(=O)N[C@@H](CC2CCCCC2)C(=O)N[C@@H](C(C)(C)O)C(=O)N[C@@H](CO)C(=O)N1)C(=O)O` [Compound 1943] ({CH2CO}-HY(Carboxymethyl)DWV[Bip]V[NMeA][dL][Dab][Cha][Val(3-OH)]SC[dA][Pra]-OH; thioether N-14), the IC50 was 0.01 µM.
For the compound `CC(C)C[C@@H]1NC(=O)[C@H](Cc2c[nH]c3ccccc23)NC(=O)[C@H](CC(=O)O)NC(=O)[C@H](Cc2ccc(OCC(=O)O)cc2)NC(=O)[C@H](Cc2ccccc2)NC(=O)CSC[C@@H](C(=O)N[C@@H](C)C(N)=O)NC(=O)[C@H](CO)NC(=O)[C@H](C(C)C)NC(=O)[C@H](CC(C)C)NC(=O)[C@H](CC(N)=O)NC(=O)[C@@H](CC(C)C)NC(=O)[C@H](C)N(C)C(=O)[C@H](CCCCN)NC(=O)[C@H](Cc2ccc(-c3ccccc3)cc2)NC1=O` [Compound 2030] ({CH2CO}-FY(Carboxymethyl)DWL[Bip]K[NMeA][dL]NLVSCA-NH2; thioether N-14), the half-inhibitory concentration (IC50) is 0.03 µM.
In the case of `CC(C)C[C@@H]1NC(=O)[C@H](CCCNC(=N)N)NC(=O)[C@@H](CCc2ccccc2)NC(=O)[C@H](C)N(C)C(=O)[C@H](CCCNC(=N)N)NC(=O)[C@H](Cc2ccc(-c3ccccc3)cc2)NC(=O)[C@H](C(C)C)NC(=O)[C@H](Cc2c[nH]c3ccccc23)NC(=O)[C@H](CC(=O)O)NC(=O)[C@H](Cc2ccc(O)cc2)NC(=O)[C@H](Cc2ccccc2)NC(=O)CSC[C@@H](C(=O)NCC(N)=O)NC(=O)[C@H](CO)NC(=O)[C@H](C(C)C)NC1=O` [Compound 1018] ({CH2CO}-FYDWV[Bip]R[NMeA][d(hPhe)]RLVSCG-NH2; thioether N-14), the half-maximal inhibitory concentration (IC50) was determined as 0.12 µM.

These data come from US20240409585A1, “MACROCYCLIC IMMUNOMODULATORS” (priority 2021, published 2024).
